Tested on: 354836-022-R-J1-PDC multicell spheroid viability
Assay: Anticancer human tumor 354836-022-R-J1-PDC patient-derived head and neck squamous cell carcinoma cell line growth inhibition [PI3K]
Conditions: for IC50: curve of first compound; for viability, T/C: stronger effect = lower value
Description: Combinatorial screen of targeted agents with the PI3K inhibitors inavolisib, alpelisib, duvelisib, and copanlisib in multi-cell type tumor spheroids
A high-throughput screen of multi-cell type tumor spheroids was designed to identify active combinations of targeted small molecules and PI3K pathway inhibitors. Complex spheroids include a stromal component modeled by human endothelial cells (HUVEC) and fibroblasts modeled by human mesenchymal stem cells (MSCs). The concentration ranges selected for each drug and investigational agent were based upon clinically achievable concentrations if the clinical Cmax of the agent was known.
Compounds. The drugs and investigational agents: inavolisib (NSC800729), alpelisib (NSC765974), duvelisib (NSC772469), copanlisib (NSC816437), ipatasertib (NSC767898), afuresertib (NSC778305), talazoparib (NSC767125), sapanisertib (NSC764658), selumetinib (NSC741078), tovorafenib (DAY101, NSC766906), vemurafenib (NSC761431), ravoxertinib (NSC781343), sotorasib (NSC818433), MRTX1133 (NSC 836407), abemaciclib (NSC 768073), palbociclib (NSC758247), venetoclax (NSC 766270), SY5609 (NSC837396), enzalutamide (NSC755605), and darolutamide (NSC825331), were obtained from the National Cancer Institute (NCI) Developmental Therapeutics Program Chemical Repository. The FDA-approved anticancer drug set is available from the NCI Developmental Therapeutics Program. […] The stock solutions were prepared in dimethyl sulfoxide (DMSO, Sigma-Aldrich, St. Louis, MO, cat. D2650) at 800-fold the tested concentration and stored at -70 degrees C prior to their use. All drugs and investigational agents were tested over a range starting from a high concentration at or near the clinical Cmax and decreasing in half-log increments. If the clinical Cmax for an agent had not been determined, the highest concentration tested was 10 microM.
Cell Culture. All cells were maintained in an incubator at 37 degrees C and 5% CO2 with 95% humidity. The PDC lines were cultured according to standard operating procedures established by the NCI PDMR (https://pdmr.cancer.gov/sops/default.htm). All PDCs were thawed and cultured in Matrigel-coated flasks prepared with a working solution of 1X Ham's F-12 nutrient mix, without supplementation (Invitrogen, Waltham, MA, cat. 11765054), 100 U/mL penicillin-streptomycin (Invitrogen, cat. 15140122), and 2.5% Matrigel (Corning Inc., Corning, NY, cat. 354248) for the first three passages. The 354836-022-R-J1-PDC, 475296-252-R-J1-PDC, and 997726-040-R-J2-PDC lines were cultured in 6A media, which includes advanced DMEM/F-12 (Thermo Fisher Scientific, cat. 12634028), 10 mM HEPES (Thermo Fisher Scientific, cat. 15630080), 1X GlutaMAX supplement (Thermo Fisher Scientific, cat. 35050061), 0.1 mg/mL primocin (InvivoGen, San Diego, CA, cat. ant-pm-2), 10% defined fetal bovine serum, heat inactivated (HyClone Laboratories Inc., Logan, UT, cat. SH30070.03HI), 50% L-WRN conditioned media (ATCC, cat. CRL-3276), 1.25 mM N-Acetyl-L-cysteine (Sigma-Aldrich, cat. A9165), 10 mM nicotinamide (Sigma-Aldrich, cat. N0636), 1X B-27 supplement (Thermo Fisher Scientific, cat. 17504044), 1X N-2 supplement (Thermo Fisher Scientific, cat. 17502048), and 10 microM Y-27632 dihydrochloride (Tocris Bioscience, Bristol, United Kingdom, cat. 1254). The 624824-186-R-J2-PDC line was cultured in 6C/Colon 1B media, which includes all 6A media components plus 50 ng/mL human EGF recombinant protein (Thermo Fisher Scientific, cat. PHG0311). […]

[1] = second compound 0.00316 µM, first compound 0.0316 µM
[2] = second compound 0.00316 µM, first compound 0.1 µM
[3] = second compound 0.01 µM, first compound 0.0316 µM
[4] = second compound 0.01 µM, first compound 0.1 µM
[5] = second compound 0.0316 µM, first compound 0.0316 µM
[6] = second compound 0.0316 µM, first compound 0.1 µM
[7] = second compound 0.1 µM, first compound 0.0316 µM
[8] = second compound 0.1 µM, first compound 0.1 µM
[9] = second compound 0.316 µM, first compound 0.0316 µM
[10] = second compound 0.316 µM, first compound 0.1 µM
[11] = second compound 1 µM, first compound 0.0316 µM
[12] = second compound 1 µM, first compound 0.1 µM
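Note: spheroids exposed to agents for seven days before the viability read.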

With `CC(C)n1nc(-c2ccc3oc(N)nc3c2)c2c(N)ncnc21` + CC(Nc1ccc2c(c1)OCCn1cc(N3C(=O)OCC3C(F)F)nc1-2)C(N)=O the IC50 (second compound 0.00316 µM) was 0.0139 µM, the IC50 (second compound 0.01 µM) was 0.0115 µM and the IC50 (second compound 0.0316 µM) was 0.00762 µM. It also gave an IC50 (second compound 0.1 µM) of 0.0106 µM, an IC50 (second compound 0.316 µM) of 0.00501 µM and an IC50 (second compound 1 µM) of 0.00186 µM. It also gave a viability, T/C (second compound 0.00316 µM, first compound 0.000316 µM) of 99.9%, a viability, T/C (second compound 0.00316 µM, first compound 0.001 µM) of 77% and a viability, T/C (second compound 0.00316 µM, first compound 0.00316 µM) of 80.6%. The viability, T/C (second compound 0.00316 µM, first compound 0.01 µM) was 53.9%, the viability, T/C [1] was 35.2% and the viability, T/C [2] was 12.7%. For the same compound, the viability, T/C (second compound 0.01 µM, first compound 0.000316 µM) was 104%, the viability, T/C (second compound 0.01 µM, first compound 0.001 µM) was 76% and the viability, T/C (second compound 0.01 µM, first compound 0.00316 µM) was 74.5%. It also gave a viability, T/C (second compound 0.01 µM, first compound 0.01 µM) of 51.3%, a viability, T/C [3] of 37.8% and a viability, T/C [4] of 13.1%. The viability, T/C (second compound 0.0316 µM, first compound 0.000316 µM) was 90.2%, the viability, T/C (second compound 0.0316 µM, first compound 0.001 µM) was 78.8% and the viability, T/C (second compound 0.0316 µM, first compound 0.00316 µM) was 59.2%. It also gave a viability, T/C (second compound 0.0316 µM, first compound 0.01 µM) of 50.5%, a viability, T/C [5] of 25.9% and a viability, T/C [6] of 9.5%. The viability, T/C (second compound 0.1 µM, first compound 0.000316 µM) was 74.1%, the viability, T/C (second compound 0.1 µM, first compound 0.001 µM) was 81.6% and the viability, T/C (second compound 0.1 µM, first compound 0.00316 µM) was 71.3%. It also gave a viability, T/C (second compound 0.1 µM, first compound 0.01 µM) of 49.4%, a viability, T/C [7] of 25.4% and a viability, T/C [8] of 6.95%. For the same compound, the viability, T/C (second compound 0.316 µM, first compound 0.000316 µM) was 60.3%, the viability, T/C (second compound 0.316 µM, first compound 0.001 µM) was 75.7% and the viability, T/C (second compound 0.316 µM, first compound 0.00316 µM) was 54%. The viability, T/C (second compound 0.316 µM, first compound 0.01 µM) was 37.7%, the viability, T/C [9] was 22.2% and the viability, T/C [10] was 6.64%. The viability, T/C (second compound 1 µM, first compound 0.000316 µM) was 57.5%, the viability, T/C (second compound 1 µM, first compound 0.001 µM) was 54.8% and the viability, T/C (second compound 1 µM, first compound 0.00316 µM) was 45.9%. For the same compound, the viability, T/C (second compound 1 µM, first compound 0.01 µM) was 34.8%, the viability, T/C [11] was 19.4% and the viability, T/C [12] was 5.83%.
Work on `CCCS(=O)(=O)Nc1ccc(F)c(C(=O)c2c[nH]c3ncc(-c4ccc(Cl)cc4)cc23)c1F` + CC(Nc1ccc2c(c1)OCCn1cc(N3C(=O)OCC3C(F)F)nc1-2)C(N)=O yielded an IC50 (second compound 0.00316 µM) of 6.95 µM, an IC50 (second compound 0.01 µM) of 5.96 µM and an IC50 (second compound 0.0316 µM) of 6.55 µM. For the same compound, the IC50 (second compound 0.1 µM) was 5.52 µM, the IC50 (second compound 0.316 µM) was 4.22 µM and the IC50 (second compound 1 µM) was 3.9 µM. For the same compound, the viability, T/C [1] was 103%, the viability, T/C [2] was 131% and the viability, T/C (second compound 0.00316 µM, first compound 0.316 µM) was 107%. It also gave a viability, T/C (second compound 0.00316 µM, first compound 1 µM) of 92.7%, a viability, T/C (second compound 0.00316 µM, first compound 3.16 µM) of 90.5% and a viability, T/C (second compound 0.00316 µM, first compound 10 µM) of 32.7%. It also gave a viability, T/C [3] of 106%, a viability, T/C [4] of 93.2% and a viability, T/C (second compound 0.01 µM, first compound 0.316 µM) of 117%. It also gave a viability, T/C (second compound 0.01 µM, first compound 1 µM) of 90.5%, a viability, T/C (second compound 0.01 µM, first compound 3.16 µM) of 78.5% and a viability, T/C (second compound 0.01 µM, first compound 10 µM) of 27.5%. For the same compound, the viability, T/C [5] was 95.6%, the viability, T/C [6] was 111% and the viability, T/C (second compound 0.0316 µM, first compound 0.316 µM) was 95.2%. For the same compound, the viability, T/C (second compound 0.0316 µM, first compound 1 µM) was 105%, the viability, T/C (second compound 0.0316 µM, first compound 3.16 µM) was 93% and the viability, T/C (second compound 0.0316 µM, first compound 10 µM) was 24.8%. The viability, T/C [7] was 85.8%, the viability, T/C [8] was 73.5% and the viability, T/C (second compound 0.1 µM, first compound 0.316 µM) was 81.8%. The viability, T/C (second compound 0.1 µM, first compound 1 µM) was 86.3%, the viability, T/C (second compound 0.1 µM, first compound 3.16 µM) was 79.4% and the viability, T/C (second compound 0.1 µM, first compound 10 µM) was 18.6%. For the same compound, the viability, T/C [9] was 69.6%, the viability, T/C [10] was 68.2% and the viability, T/C (second compound 0.316 µM, first compound 0.316 µM) was 78.4%. The viability, T/C (second compound 0.316 µM, first compound 1 µM) was 84.5%, the viability, T/C (second compound 0.316 µM, first compound 3.16 µM) was 61.8% and the viability, T/C (second compound 0.316 µM, first compound 10 µM) was 15.1%. The viability, T/C [11] was 54%, the viability, T/C [12] was 54.1% and the viability, T/C (second compound 1 µM, first compound 0.316 µM) was 66.1%. It also gave a viability, T/C (second compound 1 µM, first compound 1 µM) of 55.5%, a viability, T/C (second compound 1 µM, first compound 3.16 µM) of 63.4% and a viability, T/C (second compound 1 µM, first compound 10 µM) of 11.1%.

Source: PubChem BioAssay AID1963981 (Molecular Pharmacology Branch, DTP, NCI, 2024)
